{"source": "patent US20040120922A1", "about": "“Method for promoting bone formation” (Genzyme Corporation, priority 2002, published 2004)", "format_in_all_cases": "in vivo, human", "key": {"hemodialysis patients [1]": {"tested_on": "hemodialysis patients", "experiment": "Biochemical marker studies, 52 week randomized study in hemodialysis patients", "conditions": "end of the chronic phase of the study", "from_the_text": "Protocols 1-7 for use of RenaGel® (Geltex Pharmaceuticals, Inc., Waltham, Mass.) in each of the haemodialysis patient studies are provided in the following references, respectively, the teachings of which are incorporated herein by reference in their entireties.\nChertow, G. M., Burke, S. K., Raggi, P., for the Treat to Goal Working Group, “Sevelamer attenuates the progression of coronary and aortic calcification in hemodialysis patients,” Kidney Int. 62: 245-252 (2002).\nOsteocalcin and BSAP are measures of osteoblast function and are indicative of bone formation. […] There were no statistically significant differences between treatment groups in the mean change from Day 0 to Week 52 in c-telopeptides, a collagen fragment which indicates osteoclast function and bone resorption.\nThe study was a 52 week, randomized, open label, multi-center, parallel study designed to assess the effects of sevelamer compared to calcium acetate/carbonate in enabling hemodialysis patients to reach therapeutic goals of phosphorus <5 mg/dL, calcium <10.5 mg/dL and iPTH in the range of 150-300 pg/mL. Patients also underwent Electron Beam Tomography (EBT) scans at Day 0 and Weeks 26 and 52. These scans were used to assess changes in cardiovascular calcification over time. […]"}, "hemodialysis patients [2]": {"tested_on": "hemodialysis patients", "experiment": "Cardiovascular calcification by Electron Beam Tomography (Agatston score), 52 week study", "conditions": "Week 0 to 52", "protocol": "The study was a 52 week, randomized, open label, multi-center, parallel study designed to assess the effects of sevelamer compared to calcium acetate/carbonate in enabling hemodialysis patients to reach therapeutic goals of phosphorus <5 mg/dL, calcium <10.5 mg/dL and iPTH in the range of 150-300 pg/mL. Patients also underwent Electron Beam Tomography (EBT) scans at Day 0 and Weeks 26 and 52. These scans were used to assess changes in cardiovascular calcification over time. A total of 202 patients who were on hemodialysis and taking one or more phosphate binders were randomized in a 1:1 design to receive either Renagel® or calcium acetate (United States)/carbonate (Europe), stratified by the presence or absence of diabetes.\nApproximately 12 months into the Extension study, the analysis of the initial study was completed. […] This difference was statistically significant (p=0.0398). […] This difference was statistically significant (p=0.0104). When analyzed by percent change and weekly change, the results were consistently in favor of the sevelamer group. Complete results are described in the article referenced as Protocol 7 (Chertow, 2002)."}, "hemodialysis patients [3]": {"tested_on": "hemodialysis patients", "experiment": "Biochemical markers after 12 months of treatment (Example 2)", "conditions": "on average, one treatment group relative to the other", "protocol": "Following the 12 months of treatment, the levels a number of biochemical markers were assayed in the patient groups. […] The group treated with sevelamer had on average higher iPTH, 1-84 PTH, alkaline phosphatase, bone specific alkaline phosphatase, osteocalcin, and HDL cholesterol. The sevelamer group had lower calcium, 25-hydroxyvitamin D, total cholesterol, LDL cholesterol, apolipoprotein B, […] and total CO2."}, "hemodialysis patients [4]": {"tested_on": "hemodialysis patients", "experiment": "Bone density, baseline vs 12 month scan (Example 2)", "protocol": "[…] Specifically, thoracic spine bone density was assessed by computerized tomography densitometry (density expressed as Hounsfield units). Trabecular bone density was measured in the core of the lowest vertebral body completely captured by the scanning procedure, while cortical bone density was measured in the axial plate of the same vertebral body. Care was taken to evaluate exactly the same vertebral level in consecutive scans in the same patient. No significant differences in demographics, baseline bone density or vascular calcification scores were observed between the sevelamer and calcium groups, with the exception of age, (sevelamer/Renagel group 53±12 yrs, calcium group 59±13 yrs, p=0.02)."}, "hemodialysis patients [5]": {"tested_on": "hemodialysis patients", "experiment": "Thoracic spine bone density by computerized tomography densitometry, baseline vs 24 month EBT scan (Extension study)", "conditions": "two years, FIG. 1", "from_the_text": "Prior to the completion and analysis of this protocol, the study was extended for an additional two years. During this extension study, patients would remain on the phosphate binder to which they were originally randomized, sevelamer or calcium acetate/carbonate, and EBT scans would be performed at Month 24 and Month 36, to assess long-term changes in cardiovascular calcification. Forty-five patients in the US and 72 patients in the EU were eligible and consented to participate in the Extension study.\nHaving met the endpoints of the original study, the Extension study was prematurely discontinued. Only 77 Extension study patients opted to have a final EBT scan performed.\nThe study's EBT Core Lab evaluated the EBT images of patients who had both a baseline and 24 month scan to assess changes over time in trabecular and cortical bone density. Specifically, thoracic spine bone density was assessed by computerized tomography densitometry (density expressed as Hounsfield units). Trabecular bone density was measured in the core of the lowest vertebral body completely captured by the scanning procedure, while cortical bone density was measured in the axial plate of the same vertebral body. Care was taken to evaluate exactly the same vertebral level in consecutive scans in the same patient. […]"}, "[6]": {"conditions": "12 month treatment period, absolute and percentage change"}}}
{"substance": "calcium acetate/carbonate", "values": [{"measurement": "mean increase in BSAP (bone-specific alkaline phosphatase)", "setting": "hemodialysis patients [1]; p<0.0001 between groups", "value": 6.81, "unit": "U/L"}, {"measurement": "mean increase in osteocalcin", "setting": "hemodialysis patients [1]; p=0.0003 between groups", "value": 15.80, "unit": "ng/mL"}, {"measurement": "median change in aortic calcification by Agatston score", "setting": "hemodialysis patients [2]; p=0.0104 between groups", "value": 75.05}, {"measurement": "median change in coronary artery calcification by Agatston score", "setting": "hemodialysis patients [2]; p=0.0398 between groups", "value": 36.55}, {"measurement": "iPTH", "setting": "hemodialysis patients [3]", "value": "significantly lower"}, {"measurement": "change in cortical bone density", "setting": "hemodialysis patients [4]; [6]", "value": "trend to reduced"}, {"measurement": "change in trabecular bone density", "setting": "hemodialysis patients [4]; [6]", "value": "significant reduction"}, {"measurement": "magnitude of trabecular bone density loss, mean", "setting": "hemodialysis patients [4]; 52 weeks", "value": "−5", "unit": "%"}, {"measurement": "change in cortical bone density from baseline", "setting": "hemodialysis patients [5]", "value": "non-significant decrease"}, {"measurement": "change in trabecular bone density from baseline", "setting": "hemodialysis patients [5]", "value": "significant reduction"}]}
